In patent US9266871B2, “Trifluoromethyl-substituted fused pyrimidines and their use” (BAYER PHARMA AKTIENGESELLSCHAFT, priority 2013, dated 2016):

Target: T1, bovine PDE 6 (Bos taurus, UniProt P11541+P23439)
T1 construct: from tissue; host or cells: bovine retina, photoreceptor outer segments (ROS)
T1 sequence (P11541 2-856 limits assumed): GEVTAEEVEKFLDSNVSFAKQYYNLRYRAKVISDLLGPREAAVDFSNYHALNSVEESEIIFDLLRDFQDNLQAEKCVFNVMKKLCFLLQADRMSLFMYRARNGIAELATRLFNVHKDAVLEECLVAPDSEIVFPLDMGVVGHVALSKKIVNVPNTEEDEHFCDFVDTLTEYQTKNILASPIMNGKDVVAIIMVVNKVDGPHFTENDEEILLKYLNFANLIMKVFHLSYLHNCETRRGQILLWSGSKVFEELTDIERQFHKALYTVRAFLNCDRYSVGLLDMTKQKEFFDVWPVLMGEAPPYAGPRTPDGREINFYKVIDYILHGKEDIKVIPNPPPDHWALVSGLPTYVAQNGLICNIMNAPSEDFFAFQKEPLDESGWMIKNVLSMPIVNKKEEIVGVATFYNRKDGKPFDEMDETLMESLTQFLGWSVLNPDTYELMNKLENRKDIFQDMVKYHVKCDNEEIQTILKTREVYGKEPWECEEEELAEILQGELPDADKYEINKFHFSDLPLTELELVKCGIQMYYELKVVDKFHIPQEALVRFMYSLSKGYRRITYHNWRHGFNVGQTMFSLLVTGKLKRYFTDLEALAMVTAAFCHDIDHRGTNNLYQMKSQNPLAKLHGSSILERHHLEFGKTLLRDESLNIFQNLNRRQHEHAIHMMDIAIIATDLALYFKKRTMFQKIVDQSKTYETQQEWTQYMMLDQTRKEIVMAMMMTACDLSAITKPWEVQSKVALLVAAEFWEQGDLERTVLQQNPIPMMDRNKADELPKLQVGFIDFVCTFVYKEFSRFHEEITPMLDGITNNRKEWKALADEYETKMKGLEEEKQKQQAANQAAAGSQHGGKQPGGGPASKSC
T1 sequence (P23439 2-850 limits assumed): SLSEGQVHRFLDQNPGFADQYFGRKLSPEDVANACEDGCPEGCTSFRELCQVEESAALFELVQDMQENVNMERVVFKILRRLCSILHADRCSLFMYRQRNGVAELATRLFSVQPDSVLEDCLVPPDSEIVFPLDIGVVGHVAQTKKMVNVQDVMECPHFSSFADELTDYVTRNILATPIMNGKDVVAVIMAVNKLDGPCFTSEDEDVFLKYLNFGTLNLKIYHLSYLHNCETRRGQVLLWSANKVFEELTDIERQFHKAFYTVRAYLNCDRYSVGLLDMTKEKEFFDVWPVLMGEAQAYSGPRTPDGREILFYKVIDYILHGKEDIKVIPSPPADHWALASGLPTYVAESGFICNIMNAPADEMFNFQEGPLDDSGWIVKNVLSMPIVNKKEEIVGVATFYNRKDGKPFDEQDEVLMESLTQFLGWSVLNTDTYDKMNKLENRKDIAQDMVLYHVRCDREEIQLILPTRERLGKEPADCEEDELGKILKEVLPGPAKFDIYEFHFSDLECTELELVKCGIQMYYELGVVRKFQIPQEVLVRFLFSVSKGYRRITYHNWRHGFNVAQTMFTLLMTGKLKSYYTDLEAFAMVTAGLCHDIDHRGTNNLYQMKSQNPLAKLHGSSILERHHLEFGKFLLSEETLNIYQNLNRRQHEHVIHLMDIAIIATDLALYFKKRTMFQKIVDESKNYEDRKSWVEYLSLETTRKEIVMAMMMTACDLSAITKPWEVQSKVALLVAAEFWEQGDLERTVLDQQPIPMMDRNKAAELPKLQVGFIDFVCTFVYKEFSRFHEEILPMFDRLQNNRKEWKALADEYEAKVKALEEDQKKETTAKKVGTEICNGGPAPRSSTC
Test: Inhibition of bovine phosphodiesterase 6 (PDE 6), 3H-cGMP SPA
Format: biochemical
Details: bovine PDE 6 inhibition
Procedure: B-6. Inhibition of Bovine Phosphodiesterase 6 (PDE 6)
PDE 6 is purified from external photoreceptor segments of bovine retina (ROS), activated by mild trypsination and purified further by ion exchange chromatography using a Mono Q column. Fractions having PDE 6 activity are combined (PDE 6 preparation) and stored at −80° (I. Saenz de Tejada et al., International Journal of Impotence Research 2001, 13, 282-290). The in vitro effect of test substances on bovine PDE 6 is determined using the commercially available 3H-cGMP Scintillation Proximity Assay (SPA) from Perkin Elmer. The reaction ([…], 37° C.) comprises serial dilution series of the test substances in DMSO and PDE 6 preparation (typical dilution 1:100,000), [8^−3H]guanosine 3′,5′-cyclic phosphate (0.25 μCi/mL; Perkin Elmer) and unlabelled cGMP (10 μM) in assay buffer (50 mM Tris/HCl pH 7.5; 140 mM NaCl; 8.3 mM MgCl2; 1.7 mM EDTA; 0.02% BSA). IC50 values are determined by plotting the substance concentration against the percent PDE 6 inhibition determined (Wunder et al. Molecular Pharmacology 2005, 68, 1775-1781).

Row | IC50 [nM] | Structure (SMILES)
1 | 220 | C[C@@]1(C(F)(F)F)C(=O)Nc2nc(-c3nn(Cc4ncccc4F)c4ncc(F)cc34)nc(NCCC(F)(F)F)c21 (single isomer, unassigned) [Example 1-1]
2 | 1400 | C[C@]1(C(F)(F)F)C(=O)Nc2nc(-c3nn(Cc4ncccc4F)c4ncc(F)cc34)nc(NCCC(F)(F)F)c21 (single isomer, unassigned) [Example 1-2]
